Experimental data reported in US20090281133A1, “Heterocyclic antiviral compounds” (Roche Palo Alto LLC, priority 2008, published 2009).

Tested on: HIV
Assay: not given
Conditions: cited from earlier work

Molecule	block of HIV entry into the cells
RANTES: CC chemokine, naturally occurring chemokine that can stimulate the CCR5 receptor (protein, UniProt P13501 24-91, looked up) C-C motif chemokine 5: SPYSSDTTPCCFAYIARPLPRAHIKEYFYTSGKCSNPAVVFVTRKNRQVCANPEKKWVREYINSLEMS	block HIV entry into the cells

Tested on: not given
Assay: not given
Conditions: not given

Molecule	melting point
CCCCC1CN(CC2CCOCC2)C(=O)CC12CCN(C1(C)CCN(C(=O)c3c(C)ncnc3C)CC1)CC2 (centres unmarked) [I-4]	92.8 to 100.1 °C

Biological target: T1, Human CCR5 receptor (Homo sapiens, UniProt P51681)
T1 construct: expressed in transfected cells
Assay: Human CCR5 receptor-ligand binding assay
Conditions: CHO-Gα16-hCCR5 cells, 125I RANTES binding
Excerpt: Human CCR5 Receptor-Ligand Binding Assay Protocol
Human CCR5 receptor (Genebank ID: 29169292) was cloned into mammalian expression vector, pTarget (Promega). The construct was transfected into CHO-Gα16 cells by using Fugene Reagent (Roche). Clones were selected under antibiotic pressure (G418 and Hygromycin) and sorted 4 times with a fluorescence activates cell sorter and a monoclonal antibody specific for CCR5 receptor (BD Biosciences Pharmigen, Mab 2D7, Cat. No. 555993). The clone with highest expression (100,000 copies per cell) was chosen for the binding assays.
Adherent cells in […] tissue culture flask (˜90% confluent) were harvested using 1 mM EDTA in PBS (phosphate-buffered saline) without Ca^2+ and Mg^2+. Cells were washed twice with PBS containing no Ca^2+ and Mg^2+. CHO-Gα16-hCCR5 cells were then resuspended (1×10^6/mL) in ice cold binding buffer (50 mM HEPES, 1 mM CaCl2, 5 mM MgCl2, 0.5% BSA, 0.05% NaN3, pH 7.24), pH 7.4), supplemented with freshly made 0.5% BSA and 0.05% NaN3.
Eighty μl CHO-Gα16-hCCR5 (1×10^6/mL) cells were added to 96 well plates. All dilutions were made in binding buffer (50 mM HEPES, 1 mM CaCl2, 5 mM MgCl2, 0.5% BSA, 0.05% NaN3, pH 7.24).
The plates were incubated on a cell shaker at RT for 2 h with a final concentration of 0.1 nM ^125I RANTES or ^125I MIP-1α or ^125I MIP-1β. The compound dilutions were made in PBS, 1% BSA. Total reaction volume was 100 μl per well. The test compounds were added to the cells prior to the addition of radioligand.
After incubation, the cells were harvested onto GF/C filter plates using Packard cell harvester. Filters were pretreated with 0.3% PEI/0.2% BSA for 30 min. The filter plate was washed rapidly 5 times with 25 mM HEPES, 500 mM NaCl, 1 mM CaCl2 and 5 mM MgCl2 adjusted to pH 7.1. Plates were dried in oven (70° C.) for 20 min, added with 40 μl scintillation fluid and sealed with Packard TopSeal-A. Packard Top Count was used to measure of the radioactivity for 1 min per well.
Total binding was determined with control wells added with radioisotope and buffer and the non-specific binding was determined using an excess cold RANTES to some of the control wells. Specific binding was determined by subtracting the non-specific form total binding. Results are expressed as the percentage of specific ^125I RANTES binding. IC50 values were determined using varying concentrations of the test ligand in triplicates and the data was analyzed using GraphPad Prism (GraphPad, San Diego, Calif.).

T1 sequence (P51681 whole entry): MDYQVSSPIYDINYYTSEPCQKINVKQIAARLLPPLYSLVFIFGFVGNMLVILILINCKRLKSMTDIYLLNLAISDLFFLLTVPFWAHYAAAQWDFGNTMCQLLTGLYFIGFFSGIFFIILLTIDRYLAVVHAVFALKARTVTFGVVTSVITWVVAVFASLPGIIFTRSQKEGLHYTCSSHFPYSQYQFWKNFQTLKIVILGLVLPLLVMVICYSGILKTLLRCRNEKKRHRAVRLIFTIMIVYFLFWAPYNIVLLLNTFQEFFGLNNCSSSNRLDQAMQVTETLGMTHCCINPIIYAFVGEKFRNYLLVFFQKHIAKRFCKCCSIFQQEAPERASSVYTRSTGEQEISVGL

Molecule	IC50
CCCCC1CN(C[C@H]2CC[C@H](OCC)CC2)C(=O)CC12CCN(C1(C)CCN(C(=O)c3c(C)ncnc3C)CC1)CC2 (mixture of isomers) [I-1, 5-Butyl-9-[1-(4,6-dimethyl-pyrimidine-5-carbonyl)-4-methyl-piperidin-4-yl]-3-(4-ethoxy-cyclohexylmethyl)-3,9-diaza-spiro[5.5]undecan-2-one]	30.4 nM
CCCCC1CN(CC2CCC(OCC)CC2)C(=O)CC12CCN(C1(C)CCN(C(=O)c3c(C)ncnc3C)CC1)CC2 (single isomer, unassigned) [I-2]	26.8 nM
CCCCC1CN(CC2CCC(OCC)CC2)C(=O)CC12CCN(C1(C)CCN(C(=O)c3c(C)ncnc3C)CC1)CC2 (single isomer, unassigned) [I-3]	32.9 nM
CCCCC1CN(CC2CCOCC2)C(=O)CC12CCN(C1(C)CCN(C(=O)c3c(C)ncnc3C)CC1)CC2 (centres unmarked) [I-4]	17.2 nM
CCCCC1CN(C[C@H]2CC[C@H](OC)CC2)C(=O)CC12CCN(C1(C)CCN(C(=O)c3c(C)ncnc3C)CC1)CC2 (some centres unmarked) [I-5]	20.8 nM
CCCCC1CN(CC2CCN(S(C)(=O)=O)CC2)C(=O)CC12CCN(C1(C)CCN(C(=O)c3c(C)ncnc3C)CC1)CC2 (centres unmarked) [I-6]	16.9 nM
CCCCC1CN(CC2CCN(C(C)=O)CC2)C(=O)CC12CCN(C1(C)CCN(C(=O)c3c(C)ncnc3C)CC1)CC2 (centres unmarked) [I-7]	51.7 nM
CCCCC1CN(CC2CCN(C(=O)OC)CC2)C(=O)CC12CCN(C1(C)CCN(C(=O)c3c(C)ncnc3C)CC1)CC2 (centres unmarked) [I-8, 4-{1-Butyl-9-[1-(4,6-dimethyl-pyrimidine-5-carbonyl)-4-methyl-piperidin-4-yl]-4-oxo-3,9-diaza-spiro[5.5]undec-3-ylmethyl}-piperidine-1-carboxylic acid methyl ester]	24.4 nM
CCCCC1CN(C[C@H]2CC[C@@H](OCC)CC2)C(=O)CC12CCN(C1(C)CCN(C(=O)c3c(C)ncnc3C)CC1)CC2 (some centres unmarked) [I-9]	32 nM
CCCCC1CN(C[C@@H]2CCOC2)C(=O)CC12CCN(C1(C)CCN(C(=O)c3c(C)ccnc3C)CC1)CC2 (some centres unmarked) [I-10]	24.9 nM
CCCCC1CN(CC2CCCCO2)C(=O)CC12CCN(C1(C)CCN(C(=O)c3c(C)ncnc3C)CC1)CC2 (centres unmarked) [I-11]	24.6 nM
CCCCC1CN(CC2CCOCC2)C(=O)CC12CCN(C1(C)CCN(C(=O)c3c(C)ccnc3C)CC1)CC2 (centres unmarked) [I-12]	13.7 nM
CCCCC1CN(CC2CCOCC2)C(=O)CC12CCN(C1(C)CCN(C(=O)c3c(C)cc(C#N)nc3C)CC1)CC2 (centres unmarked) [I-13]	19.7 nM
CCCCC1CN(C[C@H]2CCOC2)C(=O)CC12CCN(C1(C)CCN(C(=O)c3c(C)ccnc3C)CC1)CC2 (stereo partly drawn) [I-14, 5-Butyl-9-[1-(2,4-dimethyl-pyridine-3-carbonyl)-4-methyl-piperidin-4-yl]-3-[(R)-1-(tetrahydro-furan-3-yl)methyl]-3,9-diaza-spiro[5.5]undecan-2-one]	17.7 nM
CCCCC1CN(CC2CCC(O)CC2)C(=O)CC12CCN(C1(C)CCN(C(=O)c3c(C)ccnc3C)CC1)CC2 (centres unmarked) [I-15, 5-Butyl-9-[1-(2,4-dimethyl-pyridine-3-carbonyl)-4-methyl-piperidin-4-yl]-3-(4-hydroxy-cyclohexylmethyl)-3,9-diaza-spiro[5.5]undecan-2-one]	30.5 nM

Tested on: CCR5-mediated fusion of Hela-R5 cells with CEM-NKr-CCR5-Luc cells
Assay: CCR5-mediated cell-cell fusion (CCF) assay
Assay type: cell-based
Conditions: luciferase readout, 24 hrs co-culture
Experimental: CCF assay was performed as described before (C. Ji, J. Zhang, N. Cammack and S. Sankuratri, J. Biomol. Screen. 2006 11(6):652-663). Hela-R5 cells (express gp160 from R5-tropic virus and HIV-1 Tat) were plated in 384 well white culture plates (BD Bioscience, Palo Alto, Calif.) at 7.5×10^3 cells per well in phenol red-free Dulbecco's Modified Eagle Medium (DMEM) supplemented with 10% FBS, 1× Pen-Strep, 300 μg/mL G418, 100 μg/mL hygromycin, and 1 μg/mL Doxycycline (Dox) (BD Bioscience, Palo Alto, Calif.), using Multimek (Beckman, Fullerton, Calif.) and incubated at 37° C. overnight to induce the expression of gp160. Ten μL diluted compounds in medium containing 5% DMSO were added to the cells, followed by the addition of CEM-NKr-CCR5-Luc (obtained from NIH AIDS Research & Reference Reagents Program) that expresses CD4 and CCR5 and carries a HIV-2 long terminal repeat (LTR)-driven luciferase reporter gene at 1.5×10^4 cells/15 μL/well and incubated for 24 hrs. At the end of co-culture, 15 μL of Steady-Glo luciferase substrate was added into each well, and the cultures were sealed and gently shaken for 45 min. The luciferase activity were measured for 10 sec per well as luminescence by using 16-channel TopCount NXT (PerkinElmer, Shelton, Conn.) with 10 min dark adaptation and the readout is count per second (CPS). […]

Molecule	IC50
CCCCC1CN(C[C@H]2CC[C@H](OCC)CC2)C(=O)CC12CCN(C1(C)CCN(C(=O)c3c(C)ncnc3C)CC1)CC2 (mixture of isomers) [I-1, 5-Butyl-9-[1-(4,6-dimethyl-pyrimidine-5-carbonyl)-4-methyl-piperidin-4-yl]-3-(4-ethoxy-cyclohexylmethyl)-3,9-diaza-spiro[5.5]undecan-2-one]	< 2.5 nM

Tested on: collagen induced arthritis
Assay: not given
Conditions: collagen-induced arthritis model; cited from earlier work

Molecule	incidence and severity of arthritis	infiltration of inflammatory CCR5+ T-cells into the joint
Cc1ccc(-c2ccc3c(c2)C=C(C(=O)Nc2ccc(C[N+](C)(C)C4CCOCC4)cc2)CCC3)cc1.[Cl-] [TAK-779]	reduce both the incidence and severity of arthritis	inhibited
